The text below walks through data of publication PMC4260220 (Scientific Reports, 2014).

For the assay, the target named is T1, PPARγ (Homo sapiens, UniProt P37231).
T1 sequence (P37231 231-505 limits assumed): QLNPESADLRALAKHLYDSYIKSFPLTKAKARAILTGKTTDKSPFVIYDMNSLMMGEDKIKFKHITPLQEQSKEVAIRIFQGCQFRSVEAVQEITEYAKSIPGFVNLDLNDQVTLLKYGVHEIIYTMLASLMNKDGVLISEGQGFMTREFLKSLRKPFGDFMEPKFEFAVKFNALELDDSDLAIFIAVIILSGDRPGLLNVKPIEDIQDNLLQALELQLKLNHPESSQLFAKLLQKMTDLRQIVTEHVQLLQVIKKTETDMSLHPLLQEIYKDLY
The assay is described as follows: competitive TR-FRET binding assay.

`CC(C)=CCC[C@](C)(O)[C@H]1CC[C@]2(C)[C@@H]1[C@H](O)C[C@@H]1[C@@]3(C)CC[C@H](O)C(C)(C)[C@@H]3[C@@H](O)C[C@]12C` [PPT, 20(S)-5α-Dammar-24-ene-3β,6α,12β,20-tetrol] had an inhibition constant Ki of 4.2 µM.

The term Ki denotes a dissociation constant, usually derived from enzyme kinetics or from competition with a known ligand. A high value points to a looser hold on the target.
